Laboratory results: US20230002373A1, “COMPOUNDS AND COMPOSITIONS FOR TREATING CONDITIONS ASSOCIATED WITH STING ACTIVITY” (IFM Due, Inc., priority 2019, published 2023)
pEC50: −log10 of the molar value.

biological target: T1, hSTING (Homo sapiens, UniProt Q86WV6, G230A/H232R/R293Q/R71H); test: STING reporter assay (luciferase) in THP1-Dual KO-IFNAR2 cells stimulated with 2′3′cGAMP; assay type: cell-based; settings: 15 μM 2′3′cGAMP, 24 h, class symbols
T1 construct: host or cells: THP1-Dual KO-IFNAR2 cells
T1 sequence (Q86WV6 whole entry R71H/G230A/H232R/R293Q): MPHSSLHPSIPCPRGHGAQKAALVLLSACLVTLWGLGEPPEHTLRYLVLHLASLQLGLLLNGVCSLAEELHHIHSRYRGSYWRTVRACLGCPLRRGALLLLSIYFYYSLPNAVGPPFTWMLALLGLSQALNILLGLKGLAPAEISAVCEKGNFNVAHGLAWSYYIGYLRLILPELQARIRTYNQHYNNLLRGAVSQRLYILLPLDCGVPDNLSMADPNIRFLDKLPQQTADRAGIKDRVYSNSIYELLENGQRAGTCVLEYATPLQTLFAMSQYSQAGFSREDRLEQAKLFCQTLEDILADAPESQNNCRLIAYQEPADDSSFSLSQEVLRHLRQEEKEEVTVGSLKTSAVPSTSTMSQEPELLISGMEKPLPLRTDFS
Experimental: STING pathway activation by the compounds described herein was measured using THP1-Dual™ cells (KO-IFNAR2).
THP1-Dual™ KO-IFNAR2 Cells (obtained from invivogen) were maintained in RPMI, 10% FCS, 5 ml P/S, 2 mM L-glut, 10 mM Hepes, and 1 mM sodium pyruvate. Compounds were spotted in empty 384 well tissue culture plates (Greiner 781182) by Echo for a final concentration of 0.0017-100 μM. Cells were plated into the TC plates […], 2×10E6 cells/mL. For activation with STING ligand, 2′3′cGAMP (MW 718.38, obtained from Invivogen), was prepared in Optimem media.
The following solutions were prepared for each 1×384 plate: • Solution A: 2 mL Optimem with one of the following stimuli: • 60 μL of 10 mM 2′3′cGAMP->150 μM stock • Solution B: 2 mL Optimem with 60 μL Lipofectamine 2000->Incubate 5 min at RT
2 mL of solution A and 2 ml Solution B was mixed and incubated for 20 min at room temperature (RT). 20 uL of transfection solution (A+B) was added on top of the plated cells, with a final 2′3′cGAMP concentration of 15 μM. The plates were then centrifuged immediately at 340 g for 1 minute, after which they were incubated at 37° C., 5% CO2, >98% humidity for 24 h. Luciferase reporter activity was then measured. EC50 values were calculated by using standard methods known in the art.
Luciferase reporter assay: 10 μL of supernatant from the assay was transferred to white 384-plate with flat bottom and squared wells. One pouch of QUANTI-Luc™ Plus was dissolved in 25 mL of water. 100 μL of QLC Stabilizer per 25 mL of QUANTI-Luc™ Plus solution was added. 50 μL of QUANTI-Luc™ Plus/QLC solution per well was then added. Luminescence was measured on a Platereader (e.g., Spectramax I3X (Molecular Devices GF3637001)).
Luciferase reporter activity was then measured. EC50 values were calculated by using standard methods known in the art.

| Structure (SMILES) | pEC50 |
| --- | --- |
| Cc1c(NC(=O)C(=O)Nc2c[nH]c3ccncc23)cccc1C(F)(F)F [Compound 175, N1-(2-methyl-3-(trifluoromethyl)-phenyl)-N2-(1H-pyrrolo[3,2-c]pyridin-3-yl)oxalamide] | 5.30 to 6.00 |
| O=C(NCc1ccc(Cl)c(OC(F)(F)F)c1)C(=O)Nc1c[nH]c2c(F)cncc12 [Compound 208] | 5.30 to 6.00 |

Now from value to molecule:

| pEC50 | Structure (SMILES) |
| --- | --- |
| 6.00 to 6.70 | Cc1ccc2[nH]cc(NC(=O)C(=O)Nc3ccc(C4CCCCC4)cn3)c2n1 [Compound 207] |
| 5.30 to 6.00 | O=C(Nc1c[nH]c2ncc(F)cc12)C(=O)N[C@H]1CCC2(CCCCC2)C1 (single isomer, unassigned) [Compound 201] |
| 6.00 to 6.70 | Cc1cc(NC(=O)C(=O)Nc2c[nH]c3ncc(F)cc23)cc(C(F)(F)F)c1 [Compound 101, N^1-(5-fluoro-1H-pyrrolo[2,3-b]pyridin-3-yl)-N^2-(3-methyl-5-(trifluoromethyl)phenyl)oxalamide] |
